Source: BindingDB's records for doi:10.1016/j.bmc.2005.01.048 (Pfizer, 2005)

Molecular target: T1, Renin (Homo sapiens, UniProt P00797)
T1 sequence (P00797 whole entry): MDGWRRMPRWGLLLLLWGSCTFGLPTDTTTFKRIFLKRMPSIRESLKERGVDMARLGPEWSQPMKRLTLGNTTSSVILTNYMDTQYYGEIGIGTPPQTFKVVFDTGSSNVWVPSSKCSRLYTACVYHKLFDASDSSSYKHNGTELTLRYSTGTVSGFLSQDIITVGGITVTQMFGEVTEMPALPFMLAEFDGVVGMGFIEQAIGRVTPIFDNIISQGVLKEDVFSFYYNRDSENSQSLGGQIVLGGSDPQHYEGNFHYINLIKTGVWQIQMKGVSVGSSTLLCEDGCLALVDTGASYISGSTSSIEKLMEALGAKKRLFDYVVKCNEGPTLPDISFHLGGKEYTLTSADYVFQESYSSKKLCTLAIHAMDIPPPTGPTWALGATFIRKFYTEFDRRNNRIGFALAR
Test: In Vitro Renin IC50 Determinations (Tandem GFP FRET Assay)
Conditions: pH 7.4; 22 °C
Description: The renin assay utilized a tandem Green Flourescent Protein (tGFP) substrate that was hydrolyzed by human rennin. The tGFP substrate contained a nine amino acid (Ile-His-Pro-Phe-His-Leu-Val-Ile-His) recognition sequence for human renin flanked by two GPF proteins (W1B and Topaz). Human rennin cleaves the leucine-valine site of the substrate linker. Once cleaved, the emission ratio changes. The change was monitored by the ratio of 530 nm (topaz) over 475 nm (W1B) with the excitation set at 432 nm and the cutoff at 515 nm. The assay used a 384 well plate format that was read using a Gemini XS Fluorometric plate reader (Molecular Devices). Compounds were screened at a starting concentration of 10 uM and used a fourfold eleven-point dilution regiment.

Row | IC50 [nM] | SMILES
1 | 0.3 | COc1ccccc1COCCCOc1ccc(N2C(=O)CNC[C@@H]2COc2ccc3c(c2)N(CCNC(C)=O)CCC3)cc1
2 | 180 | COc1ccccc1COCCCOc1ccc(N2CCNC[C@@H]2COc2ccc3ccccc3c2)cc1 [(2R)-1-(4-{3-[(2-methoxyphenyl)methoxy]propoxy}phenyl)-2-[(naphthalen-2-yloxy)methyl]piperazine]
3 | 1020 | COc1ccccc1COCCCOc1ccc(N2CCNC[C@@H]2COCc2ccc(-c3ccccc3)cc2)cc1 [(2R)-1-(4-{3-[(2-methoxyphenyl)methoxy]propoxy}phenyl)-2-{[(4-phenylphenyl)methoxy]methyl}piperazine]
4 | 0.5 | COc1ccccc1COCCCOc1ccc(N2CCNC[C@@H]2COc2ccc3c(c2)N(CCNC(C)=O)CCC3)cc1 [N-[2-(7-{[(2R)-1-(4-{3-[(2-methoxyphenyl)methoxy]propoxy}phenyl)piperazin-2-yl]methoxy}-1,2,3,4-tetrahydroquinolin-1-yl)ethyl]acetamide]
